Results taken from patent publication US5681838A, “Substituted amino compounds, their preparation and their use as inhibitors of thrombocyte-aggregation” (Hoechst Aktiengesellschaft, priority 1993, dated 1997).
Where two headings read alike, the source gives them in different places.

Assays:
[1] = target: T1, fibrinogen receptor (glycoprotein IIb/IIIa) (Homo sapiens, UniProt P05106+P08514); assay: inhibition of binding of 125I-fibrinogen to its receptor on intact, gel-filtered human blood platelets; conditions: following stimulation with ADP (10 μM); read-out: Ki, ADP-stimulated (inhibition of the binding of 125I-fibrinogen)
T1 construct: on intact, gel-filtered human blood platelets; from tissue; host or cells: gel-filtered blood platelets from human donor blood
Description: (§1) The compounds are tested, in particular, for their ability to inhibit blood-platelet aggregation and the adherence of fibrinogen to blood platelets (gel-filtered blood platelets from human donor blood are used which are activated with ADP or thrombin), as well as for their in-vivo ability to inhibit blood-platelet aggregation and thrombosis.
The test is of the ability of the compounds according to the invention to inhibit the binding of fibrinogen to its receptor (glycoprotein IIb/IIIa) on intact, gel-filtered human blood platelets. The value given is the Ki value for inhibition of the binding of ^125 I-fibrinogen following stimulation with ADP (10 μM). (Literature: J. S. Bennett and G. Vilaire, J. Clin. Invest. 64 (1979), 1393-1401; E. Kornecki et al., J. Biol. Chem. 256 (1981), 5695-5701; G. A. Marguerie et al., J. Biol. Chem. 254 (1979), 5357-5363; G. A. Marguerie et al., J. Biol. Chem. 255 (1980), 154-161).

[2] = system: gel-filtered human blood platelets; assay: inhibition of aggregation of gel-filtered human blood platelets following stimulation with ADP or thrombin; type: cell-based; conditions: Platelet
Description: as §1
As a functional test, the ability is measured of the compounds according to the invention to inhibit the aggregation of gel-filtered human blood platelets following stimulation with ADP or thrombin. The value given is the IC50 value of the inhibition. (Literature: G. A. Marguerie et al., J. Biol. Chem. 254 (1979), 5357-5363).

[3] = read-out: ADP-stimulated IC50 (inhibition of platelet aggregation)
[4] = read-out: Thrombin-stimulated IC50 (inhibition of platelet aggregation)

T1 sequence (P08514 32-887 limits assumed): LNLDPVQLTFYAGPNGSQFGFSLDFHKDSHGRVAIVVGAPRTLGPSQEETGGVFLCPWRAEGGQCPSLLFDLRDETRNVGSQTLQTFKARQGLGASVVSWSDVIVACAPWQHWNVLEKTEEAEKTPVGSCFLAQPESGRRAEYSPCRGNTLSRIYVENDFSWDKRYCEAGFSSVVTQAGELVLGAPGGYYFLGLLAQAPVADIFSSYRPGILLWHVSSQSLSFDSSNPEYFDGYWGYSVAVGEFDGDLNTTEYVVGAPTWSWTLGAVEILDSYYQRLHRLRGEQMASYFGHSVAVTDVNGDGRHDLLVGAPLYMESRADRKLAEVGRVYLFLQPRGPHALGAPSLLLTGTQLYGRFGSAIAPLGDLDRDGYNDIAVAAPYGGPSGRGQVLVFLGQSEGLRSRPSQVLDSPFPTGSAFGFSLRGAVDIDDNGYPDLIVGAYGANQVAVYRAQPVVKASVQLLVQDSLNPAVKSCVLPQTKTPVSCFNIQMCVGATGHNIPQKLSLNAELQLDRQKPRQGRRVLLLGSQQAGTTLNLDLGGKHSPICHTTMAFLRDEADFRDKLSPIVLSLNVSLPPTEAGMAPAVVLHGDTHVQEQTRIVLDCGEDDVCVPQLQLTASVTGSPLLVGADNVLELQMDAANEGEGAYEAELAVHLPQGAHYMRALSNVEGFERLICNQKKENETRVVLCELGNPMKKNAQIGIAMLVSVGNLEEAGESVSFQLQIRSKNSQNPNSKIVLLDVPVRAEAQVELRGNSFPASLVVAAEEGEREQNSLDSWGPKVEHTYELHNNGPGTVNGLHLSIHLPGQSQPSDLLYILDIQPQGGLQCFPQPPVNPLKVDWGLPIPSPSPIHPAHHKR
T1 sequence (P08514 891-1039 limits assumed): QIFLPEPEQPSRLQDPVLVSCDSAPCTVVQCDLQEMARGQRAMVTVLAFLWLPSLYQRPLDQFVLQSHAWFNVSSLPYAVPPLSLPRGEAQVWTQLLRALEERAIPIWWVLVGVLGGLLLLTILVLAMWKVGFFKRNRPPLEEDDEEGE
T1 sequence (P05106 27-788): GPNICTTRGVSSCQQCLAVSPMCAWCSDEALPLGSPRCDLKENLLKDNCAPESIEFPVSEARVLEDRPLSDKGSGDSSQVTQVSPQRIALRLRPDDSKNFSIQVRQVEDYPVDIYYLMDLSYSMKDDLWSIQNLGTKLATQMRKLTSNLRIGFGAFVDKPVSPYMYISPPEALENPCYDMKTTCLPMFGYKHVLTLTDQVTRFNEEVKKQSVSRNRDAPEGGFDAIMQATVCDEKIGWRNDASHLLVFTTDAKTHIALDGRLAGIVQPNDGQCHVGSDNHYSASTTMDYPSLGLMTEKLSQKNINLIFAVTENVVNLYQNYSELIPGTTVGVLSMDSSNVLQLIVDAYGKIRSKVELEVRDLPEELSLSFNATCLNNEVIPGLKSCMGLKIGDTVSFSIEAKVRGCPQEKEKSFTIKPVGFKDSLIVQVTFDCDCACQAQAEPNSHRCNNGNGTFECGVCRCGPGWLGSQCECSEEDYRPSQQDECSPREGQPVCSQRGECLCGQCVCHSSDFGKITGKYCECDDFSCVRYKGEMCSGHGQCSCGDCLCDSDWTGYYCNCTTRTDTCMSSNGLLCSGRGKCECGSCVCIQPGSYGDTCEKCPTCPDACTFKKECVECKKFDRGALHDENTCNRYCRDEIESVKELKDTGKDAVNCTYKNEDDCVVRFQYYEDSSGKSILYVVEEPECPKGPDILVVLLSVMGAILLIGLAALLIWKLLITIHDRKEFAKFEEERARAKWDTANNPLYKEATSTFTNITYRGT

Row | SMILES | Ki [1] [nM] | IC50 [2, 3] [nM] | IC50 [2, 4] [nM]
1 | N=C(N)c1ccc(C=CC(=O)NCCCN(CC(=O)O)C(=O)NC(C(=O)O)c2ccccc2)cc1 (centres unmarked) [Example 1, (1-(3-(3-(4-(Aminoiminomethyl)phenyl)acryloylamino)propyl)-3-(hydroxycarbonylphenylmethyl)ureido)acetic acid acetate] | 420 | 1500 | 1000
2 | N=C(N)c1ccc(CC2NC(=O)N(CCN(CC(=O)O)C(=O)OCC3c4ccccc4-c4ccccc43)C2=O)cc1 (centres unmarked) [Example 2, (2-(4-(4-(Aminoiminomethyl)benzyl)-2,5-dioxoimidazolidin-1-yl)ethyl)-(9-fluorenylmethoxycarbonyl)aminoacetic acid] | – | 20000 | 20000
